The results in this text go back to ChEMBL document CHEMBL1143037, “Discovery of +(2-{4-[2-(5,6,7,8-tetrahydro-1,8-naphthyridin-2-yl)ethoxy]phenyl}-cyclopropyl)acetic acid as potent and selective alphavbeta3 inhibitor: design, synthesis, and optimization” (Bioorg Med Chem, 2007).

Data set [1] addresses T1, Integrin alpha-V/beta-3 (Homo sapiens, UniProt P05106+P06756). Put plainly: Inhibition of human integrin alpha-v-beta-3 receptor expressed in HEK293 cells. In kind it is cell-based.
Data set [2] has as its target T1, Integrin alpha-V/beta-3. Put plainly: Inhibition of human integrin alpha-v-beta-3 receptor by solid phase receptor assay. In kind it is protein-complex assay.
Data set [3] in a line: (§1) Bioavailability in Sprague-Dawley rat. It is filed as ADME, organism-based. As to conditions: Sprague-Dawley, in vivo.
In data set [4] the target is Integrin alpha-V/beta-6 (Homo sapiens, UniProt P06756+P18564). Put plainly: Inhibition of integrin alpha-beta-6 receptor expressed in HT29 cells. In kind it is cell-based, HT-29.
The target of data set [5] is Integrin alpha-V/beta-5 (Homo sapiens, UniProt P06756+P18084). Put plainly: Inhibition of integrin alpha-v-beta-5 receptor expressed in HEK293 cells. It is filed as cell-based.
A short description of data set [6]: Clearance in Sprague-Dawley rat. It is filed as ADME, organism-based. As to conditions: in vivo.
Data set [7] is described as follows: (§2) Volume of distribution in Sprague-Dawley rat. In kind it is ADME, organism-based. As to conditions: Sprague-Dawley, in vivo, read-out: Vdss.
Data set [8] in a line: (§3) Cmax in Sprague-Dawley rat. It is filed as ADME, organism-based. Conditions: Sprague-Dawley, in vivo.
Data set [9] can be described thus: (§4) Half life in Sprague-Dawley rat. As to conditions: Sprague-Dawley, in vivo. It is filed as ADME, organism-based.
Data set [10] deals with Integrin alpha-V/beta-1 (Homo sapiens, UniProt P05556+P06756). In words: Inhibition of integrin alphavbeta1 receptor expressed in HEK293 cells. In kind it is cell-based.
For data set [11], the species on record is Rattus norvegicus. Described as §2. It is filed as ADME, organism-based. As to conditions: in vivo.
For data set [12], the species on record is Rattus norvegicus. The description is as §3. Conditions: in vivo. It is filed as ADME, organism-based.
The species entered for data set [13] is Rattus norvegicus. Described as §4. It is filed as ADME, organism-based. Conditions: in vivo.
The species named for data set [14] is Rattus norvegicus. Described as §1. It is filed as ADME, organism-based. As to conditions: in vivo.
The nature of data set [15]: Bioavailability in Swiss-Webster mouse at 2 mg/kg. In kind it is ADME, organism-based. As to conditions: in vivo.
Data set [16] is described as follows: AUC in Swiss-Webster mouse at 20 mg/kg, po. It is filed as ADME, organism-based. Further details: dose 20 mg/kg, route oral. Conditions: plasma.
Data set [17] in a line: AUC in Swiss-Webster mouse at 20 mg/kg, iv. Further details: dose 20 mg/kg, route intravenous. Conditions: plasma. In kind it is ADME, organism-based.
Data set [18] is described as follows: Half life in Swiss-Webster mouse at 2 mg/kg. In kind it is ADME, organism-based. Also on record: dose 2 mg/kg. Conditions: in vivo.
A short description of data set [19]: Half life in Swiss-Webster mouse at 20 mg/kg. It is filed as ADME, organism-based. Also on record: dose 20 mg/kg. Conditions: in vivo.
The nature of data set [20]: Bioavailability in Swiss-Webster mouse at 20 mg/kg. In kind it is ADME, organism-based. As to conditions: in vivo.

T1 sequence (P05106 27-788 limits assumed): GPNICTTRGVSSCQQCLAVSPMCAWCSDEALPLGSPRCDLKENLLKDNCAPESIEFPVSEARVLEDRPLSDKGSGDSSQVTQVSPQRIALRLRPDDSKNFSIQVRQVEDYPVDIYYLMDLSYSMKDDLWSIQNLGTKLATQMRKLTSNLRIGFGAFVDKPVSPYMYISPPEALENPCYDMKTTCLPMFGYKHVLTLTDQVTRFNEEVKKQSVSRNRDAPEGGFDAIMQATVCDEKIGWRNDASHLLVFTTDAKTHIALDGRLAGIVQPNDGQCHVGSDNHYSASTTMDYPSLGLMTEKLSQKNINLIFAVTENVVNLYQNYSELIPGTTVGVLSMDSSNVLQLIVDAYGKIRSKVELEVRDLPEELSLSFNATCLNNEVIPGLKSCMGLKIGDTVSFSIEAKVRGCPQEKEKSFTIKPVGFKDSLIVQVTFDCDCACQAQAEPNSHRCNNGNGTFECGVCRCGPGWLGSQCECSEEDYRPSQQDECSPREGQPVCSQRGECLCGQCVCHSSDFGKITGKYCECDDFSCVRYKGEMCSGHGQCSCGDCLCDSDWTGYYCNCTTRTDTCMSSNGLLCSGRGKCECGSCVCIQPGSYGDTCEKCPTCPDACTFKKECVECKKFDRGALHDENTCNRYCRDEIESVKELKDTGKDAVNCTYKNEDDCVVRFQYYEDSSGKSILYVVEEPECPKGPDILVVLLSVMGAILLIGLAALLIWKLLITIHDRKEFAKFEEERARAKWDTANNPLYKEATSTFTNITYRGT
T1 sequence (P06756 31-889 limits assumed): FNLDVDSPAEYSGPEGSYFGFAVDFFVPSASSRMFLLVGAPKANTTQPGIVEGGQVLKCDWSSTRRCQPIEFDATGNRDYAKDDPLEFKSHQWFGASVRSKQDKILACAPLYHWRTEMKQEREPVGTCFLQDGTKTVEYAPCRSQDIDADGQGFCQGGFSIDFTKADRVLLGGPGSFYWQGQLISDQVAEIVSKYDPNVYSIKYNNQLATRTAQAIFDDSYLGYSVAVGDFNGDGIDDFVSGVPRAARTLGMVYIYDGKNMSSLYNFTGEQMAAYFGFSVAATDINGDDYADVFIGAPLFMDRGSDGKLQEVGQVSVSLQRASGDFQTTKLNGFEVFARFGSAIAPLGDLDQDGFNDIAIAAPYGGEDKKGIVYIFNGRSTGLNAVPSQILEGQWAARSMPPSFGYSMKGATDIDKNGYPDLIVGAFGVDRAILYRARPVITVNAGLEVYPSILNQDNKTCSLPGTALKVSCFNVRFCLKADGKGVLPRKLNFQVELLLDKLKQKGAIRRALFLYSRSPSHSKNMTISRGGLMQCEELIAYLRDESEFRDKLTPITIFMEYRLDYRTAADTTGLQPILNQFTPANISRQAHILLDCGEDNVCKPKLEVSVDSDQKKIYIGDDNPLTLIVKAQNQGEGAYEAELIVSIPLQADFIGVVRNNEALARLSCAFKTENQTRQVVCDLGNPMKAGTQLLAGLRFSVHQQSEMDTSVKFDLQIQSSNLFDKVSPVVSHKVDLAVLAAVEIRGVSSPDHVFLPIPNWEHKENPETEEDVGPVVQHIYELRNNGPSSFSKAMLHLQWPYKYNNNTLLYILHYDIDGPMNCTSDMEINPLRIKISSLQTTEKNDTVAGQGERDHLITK
T1 sequence (P06756 891-1048 limits assumed): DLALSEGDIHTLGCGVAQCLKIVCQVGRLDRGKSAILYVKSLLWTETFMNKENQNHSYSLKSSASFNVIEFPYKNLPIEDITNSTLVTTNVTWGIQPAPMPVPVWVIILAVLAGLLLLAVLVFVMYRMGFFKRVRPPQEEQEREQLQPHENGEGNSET
Sequence of Integrin alpha-V/beta-5 (P06756 31-889 limits assumed): as the sequence (P06756 31-889 limits assumed) above
Sequence of Integrin alpha-V/beta-5 (P06756 891-1048 limits assumed): as the sequence (P06756 891-1048 limits assumed) above
Sequence of Integrin alpha-V/beta-5 (P18084 24-799 limits assumed): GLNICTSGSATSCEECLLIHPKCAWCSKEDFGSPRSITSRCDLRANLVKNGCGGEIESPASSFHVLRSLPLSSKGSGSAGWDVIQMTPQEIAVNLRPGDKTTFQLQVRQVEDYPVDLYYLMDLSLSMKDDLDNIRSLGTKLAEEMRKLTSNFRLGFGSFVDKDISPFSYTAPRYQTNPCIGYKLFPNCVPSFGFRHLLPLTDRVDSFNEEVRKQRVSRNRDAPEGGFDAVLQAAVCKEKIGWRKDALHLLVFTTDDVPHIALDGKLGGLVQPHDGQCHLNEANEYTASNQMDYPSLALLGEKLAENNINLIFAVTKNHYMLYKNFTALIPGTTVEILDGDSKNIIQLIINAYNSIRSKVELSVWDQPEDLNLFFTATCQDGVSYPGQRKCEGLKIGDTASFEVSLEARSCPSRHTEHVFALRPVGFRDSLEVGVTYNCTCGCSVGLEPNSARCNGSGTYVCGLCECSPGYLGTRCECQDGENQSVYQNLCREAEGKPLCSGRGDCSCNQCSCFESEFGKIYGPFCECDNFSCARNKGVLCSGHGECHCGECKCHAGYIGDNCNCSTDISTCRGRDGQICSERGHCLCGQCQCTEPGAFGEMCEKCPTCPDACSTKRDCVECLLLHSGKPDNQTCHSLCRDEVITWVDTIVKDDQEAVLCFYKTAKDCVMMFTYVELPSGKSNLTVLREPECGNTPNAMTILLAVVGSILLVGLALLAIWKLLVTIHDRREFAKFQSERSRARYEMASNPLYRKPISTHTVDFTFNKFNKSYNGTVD
Sequence of Integrin alpha-V/beta-6 (P06756 31-889 limits assumed): as the sequence (P06756 31-889 limits assumed) above
Sequence of Integrin alpha-V/beta-6 (P06756 891-1048 limits assumed): as the sequence (P06756 891-1048 limits assumed) above
Sequence of Integrin alpha-V/beta-6 (P18564 22-788 limits assumed): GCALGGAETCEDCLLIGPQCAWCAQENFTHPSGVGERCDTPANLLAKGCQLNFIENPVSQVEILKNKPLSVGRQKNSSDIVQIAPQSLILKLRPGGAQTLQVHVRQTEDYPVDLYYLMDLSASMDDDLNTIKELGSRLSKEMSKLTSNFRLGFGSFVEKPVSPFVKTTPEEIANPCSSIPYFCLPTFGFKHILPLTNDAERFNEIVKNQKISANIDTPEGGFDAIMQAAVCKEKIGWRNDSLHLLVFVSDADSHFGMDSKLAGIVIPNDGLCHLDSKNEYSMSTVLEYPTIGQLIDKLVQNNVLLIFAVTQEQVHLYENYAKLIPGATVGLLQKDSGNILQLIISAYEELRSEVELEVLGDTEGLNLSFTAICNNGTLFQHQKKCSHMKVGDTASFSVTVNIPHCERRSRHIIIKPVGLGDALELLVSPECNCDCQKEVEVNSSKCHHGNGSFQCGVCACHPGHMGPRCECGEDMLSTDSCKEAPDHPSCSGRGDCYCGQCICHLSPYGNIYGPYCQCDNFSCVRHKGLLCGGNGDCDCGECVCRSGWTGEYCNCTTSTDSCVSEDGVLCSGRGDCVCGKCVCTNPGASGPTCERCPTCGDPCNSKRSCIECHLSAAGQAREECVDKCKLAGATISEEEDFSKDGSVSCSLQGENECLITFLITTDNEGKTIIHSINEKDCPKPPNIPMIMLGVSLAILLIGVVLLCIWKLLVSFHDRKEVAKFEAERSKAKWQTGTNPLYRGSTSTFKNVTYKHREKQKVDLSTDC
Sequence of Integrin alpha-V/beta-1 (P05556 21-798 limits assumed): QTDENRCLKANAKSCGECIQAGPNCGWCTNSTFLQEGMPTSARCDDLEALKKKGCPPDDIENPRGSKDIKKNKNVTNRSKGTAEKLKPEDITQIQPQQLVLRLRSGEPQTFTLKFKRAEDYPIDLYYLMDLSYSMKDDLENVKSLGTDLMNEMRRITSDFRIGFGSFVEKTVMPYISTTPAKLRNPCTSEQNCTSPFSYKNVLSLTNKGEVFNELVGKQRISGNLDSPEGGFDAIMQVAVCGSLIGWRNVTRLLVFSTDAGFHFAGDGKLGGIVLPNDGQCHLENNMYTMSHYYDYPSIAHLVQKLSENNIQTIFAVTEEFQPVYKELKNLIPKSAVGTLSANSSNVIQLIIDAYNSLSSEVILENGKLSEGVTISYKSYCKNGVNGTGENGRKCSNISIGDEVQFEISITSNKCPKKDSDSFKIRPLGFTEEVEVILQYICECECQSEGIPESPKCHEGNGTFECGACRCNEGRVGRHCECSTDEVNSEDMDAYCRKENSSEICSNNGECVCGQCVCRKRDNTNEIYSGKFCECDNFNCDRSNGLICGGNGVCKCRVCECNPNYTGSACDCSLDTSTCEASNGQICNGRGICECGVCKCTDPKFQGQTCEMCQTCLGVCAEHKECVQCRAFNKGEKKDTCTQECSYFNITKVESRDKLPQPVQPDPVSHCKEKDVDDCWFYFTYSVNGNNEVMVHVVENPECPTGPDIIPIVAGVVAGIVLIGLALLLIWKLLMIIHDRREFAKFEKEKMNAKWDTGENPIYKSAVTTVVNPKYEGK
Sequence of Integrin alpha-V/beta-1 (P06756 31-889 limits assumed): as the sequence (P06756 31-889 limits assumed) above
Sequence of Integrin alpha-V/beta-1 (P06756 891-1048 limits assumed): as the sequence (P06756 891-1048 limits assumed) above

For orientation: IC50 means the concentration that inhibits the measured activity by half. Regarding `O=C(O)CCC1CC1c1cccc(OCCc2ccc3c(n2)NCCC3)c1` (stereo unspecified), the half-maximal inhibitory concentration (IC50) in data set [1] is 525 nM; in data set [2], 954 nM.

Consider `O=C(O)CCC1CC1c1ccc(OCc2ccc3c(n2)NCCC3)cc1` (stereo unspecified), for which the IC50 in data set [2] is 1000 nM. That is a single-digit micromolar value.

In the case of `O=C(O)CCC1CC1c1ccc(OCCc2ccc3c(n2)NCCC3)nc1` (stereo unspecified), the IC50 in [1] came out at 156 nM; in data set [2], 472 nM.

Usually bioavailability stands for dose-corrected exposure relative to a reference, in per cent. A high value points to much systemic uptake. Broadly, the clearance is the volume of plasma or blood freed of the substance per unit of time. For orientation: Cmax means the maximum level reached in the sampled fluid or tissue. For orientation: half-life means the time needed for the level to fall by half in the phase considered. A higher half-life goes with slow loss. Take `O=C(O)CC1CC1c1ccc(OCCc2ccc3c(n2)NCCC3)c(F)c1` (stereo unspecified): the bioavailability in data set [3] is 100%. In addition, the IC50 is 3530 nM in data set [4]; 3 nM in [5]; 11 nM in data set [1]; 0.5 nM in data set [2]; 11 nM in data set [10]. This molecule returned a clearance in data set [6] of 5.8 mL/min/kg. In data set [7], the Vd was 0.864 L/kg. The molecule also registered a maximum concentration (Cmax) in [8] of 15000 ng/mL. The molecule also had a half-life in [9] of 3.7 h.

As for `CC1(c2ccc(OCCc3ccc4c(n3)NCCC4)cc2)CC1CC(=O)O` (stereo unspecified), 36 nM corresponded to half-maximal inhibition in data set [2] (IC50).

`O=C(O)CC1CC1c1cccc(OCCc2ccc3c(n2)NCCC3)c1` (stereo unspecified): the IC50 in data set [4] was determined as 9600 nM; in [1], 205 nM; in [2], 776 nM.

`O=C(O)CC1CC1c1ccc(OCCc2ccc3c(n2)NCCC3)c(F)c1F` (stereo unspecified): the concentration for half-maximal inhibition (IC50) in data set [4] worked out at 10000 nM; in data set [1], 10 nM; in data set [2], 2 nM.

For `O=C(O)CC1C(c2ccc(OCCc3ccc4c(n3)NCCC4)cc2)C1(Cl)Cl` (stereo unspecified), the bioavailability in [3] came to 100%. Further, the half-maximal inhibitory concentration (IC50) in data set [4] is 4500 nM; in data set [1], 1.5 nM; in data set [2] it was 1.6 nM. Besides, in [6], the clearance was 2.2 mL/min/kg. In addition, in [7], the Vd is 0.493 L/kg. This molecule also came in with a Cmax in [8] of 17400 ng/mL. In data set [9], the half-life is 4 h.

With `O=C(O)CC1CC1c1ccc(OCCc2ccc3c(n2)NCCC3)nc1` (stereo unspecified), the 50% inhibitory concentration (IC50) in [4] is 10000 nM; in data set [2], 1900 nM.

For orientation: Vdss means a proportionality between amount in the body and measured concentration, not a real space. Regarding `CC1(C)C(CC(=O)O)C1c1ccc(OCCc2ccc3c(n2)NCCC3)cc1` (stereo in doubt; 83), the 50% inhibitory concentration (IC50) in data set [4] came out at 10000 nM; in data set [1] it was 1.5 nM; in [2] it was 1.3 nM. In addition, the volume of distribution (Vdss) in [11] turned out to be 0.419 L/kg. The molecule also gave a maximum concentration (Cmax) in data set [12] of 23500 ng/mL. The molecule further displayed a t1/2 in data set [13] of 3.5 h.

`CC1(C)C(CC(=O)O)C1c1ccc(OCCc2ccc3c(n2)NCCC3)cc1` (stereo in doubt; (+)83) came in with a bioavailability in data set [3] of 100%. Further, the IC50 worked out at 1790 nM in [4], 4 nM in data set [5], 0.4 nM in [1] and 0.4 nM in data set [2]. Besides, the clearance in [6] is 0.9 mL/min/kg. Also, in [7], the Vd is 0.276 L/kg. This molecule also came in with a Cmax in [8] of 33000 ng/mL. In data set [9], this molecule gave a half-life of 5.1 h.

In general, AUC refers to concentration integrated over time. Low values mean low exposure, high ones high exposure. For the molecule `O=C(O)CC1CC1c1ccc(OCCc2ccc3c(n2)NCCC3)cc1` (stereo in doubt; 7), the F in data set [14] is recorded as 62%. Further, the IC50 in [5] is 4.4 nM; in data set [1], 3 nM; in [2] it was 5 nM; in data set [10], 64 nM. Also, in data set [15], the bioavailability stood at 62%. The exposure (AUC) in data set [16] turned out to be 398000 ng·h/mL; in data set [17], 378000 ng·h/mL. The same molecule yielded a Vdss in [11] of 0.221 L/kg. The molecule further yielded a Cmax in [8] of 24500 ng/mL. This molecule had a t1/2 in data set [13] of 1.6 h. In data set [18], the half-life was 1.6 h.

`O=C(O)CC1CC1c1ccc(OCCCNc2ccccn2)cc1` (stereo unspecified): the bioavailability in data set [15] came to 79%. Further, the results for the AUC in [16] and in data set [17] were 18300 ng·h/mL and 14200 ng·h/mL, respectively. For the same molecule, the half-inhibitory concentration (IC50) in data set [1] stood at 42 nM; in data set [2], 19 nM; in data set [10], 234 nM. The half-life in [18] was 2.3 h.

`CC1(C)[C@H](c2ccc(OCCc3ccc4c(n3)NCCC4)cc2)[C@@H]1CC(=O)O` (relative stereo) gave an IC50 in [2] of 12 nM.

As for `O=C(O)CC1(c2ccccc2)CC1c1ccc(OCCc2ccc3c(n2)NCCC3)cc1` (stereo unspecified), the midpoint of inhibition in [2], the IC50, lay at 2700 nM.

Take `O=C(O)CC1CC1c1ccc(OCCc2ccc3c(n2)NCCC3)cc1` (single isomer, unassigned; (-)): the half-maximal inhibitory concentration (IC50) in data set [4] is 10000 nM; in data set [5], 33 nM; in [1], 16 nM; in [2] it was 16 nM; in [10], 297 nM.

Take `O=C(O)CC1C(c2ccc(OCCc3ccc4c(n3)NCCC4)cc2)C1(Br)Br` (stereo unspecified): the 50% inhibitory concentration (IC50) was determined as 4330 nM in [4], 20 nM in [5], 1.7 nM in data set [1] and 3.3 nM in data set [2].

Regarding `O=C(O)CC(Cc1ccc(OCCCNc2ccccn2)cc1)c1ccccc1` (stereo unspecified), the 50% inhibitory concentration (IC50) in data set [4] was 19800 nM; in [5], 20 nM; in [1] it was 29 nM; in data set [2], 8 nM; in data set [10], 96 nM. The molecule also yielded a bioavailability in data set [15] of 100%. The AUC in [16] was 2800 ng·h/mL; in data set [17], 2300 ng·h/mL. Further, the half-life in data set [18] was 4.4 h.

Take `CNc1cccc(CCOc2ccc(C3CC3CC(=O)O)cc2)n1` (stereo unspecified): the results for the IC50 in [4], in [1] and in data set [2] were 20000 nM, 7 nM and 7.4 nM, respectively.

For `O=C(O)CC1CC1c1ccc(OCCc2ccc3c(n2)NCCC3)c(O)c1` (stereo unspecified), the concentration for half-maximal inhibition (IC50) in data set [4] stood at 9800 nM; in data set [5] it was 3 nM; in [1], 0.9 nM; in data set [2], 1 nM.

As for `CC1(C)C(CC(=O)O)C1c1ccc(OCCc2ccc3c(n2)NCCC3)cc1` (single isomer, unassigned; (-)), the IC50 amounted to 10000 nM in [4] and 42 nM in data set [2].

With `O=C(O)CC(Cc1ccc(OCCCNc2ccccn2)cc1)c1cccnc1` (stereo unspecified), the half-maximal inhibitory concentration (IC50) in data set [4] was 25000 nM; in [1] it was 2 nM; in data set [2], 0.5 nM; in data set [10], 28 nM. In addition, the bioavailability in [15] was found to be 100%. Further, the area under the curve (AUC) in data set [16] was 300 ng·h/mL; in data set [17] it was 200 ng·h/mL. Moreover, the half-life in data set [18] is 1.7 h.

Regarding `CC(CC(=O)O)Cc1ccc(OCCCNc2ccccn2)cc1` (stereo unspecified), the concentration for half-maximal inhibition (IC50) in [4] came out at 4360 nM; in [5] it was 33 nM; in data set [1], 51 nM; in data set [2] it was 21 nM; in [10], 102 nM. For the same molecule, the area under the curve (AUC) in [16] was 195000 ng·h/mL; in [17], 106000 ng·h/mL. The molecule further had a half-life in data set [19] of 4.1 h. This molecule gave a bioavailability in data set [20] of 92%.

As for `O=C(O)CC1CC1c1ccc(OCCc2ccc3c(n2)NCCC3)cc1` (stereo in doubt; (+)7), in [14], the F is given as 100%. The 50% inhibitory concentration (IC50) was 2570 nM in [4]; 1.4 nM in [5]; 0.6 nM in [1]; 0.6 nM in data set [2]; 6 nM in data set [10]. The same molecule showed a Vdss in [11] of 0.915 L/kg. Further, the peak concentration (Cmax) in data set [12] was 14800 ng/mL. Moreover, the t1/2 in data set [13] is 4 h.
